pIC50: −log10 of the molar value. Read-outs that look alike come from different tables or passages of the source.
Target: T1, PRMT5/MEP50 (Homo sapiens, UniProt O14744)
T1 construct: Flag-PRMT5; made in house; host or cells: Spodoptera frugiperda (SF9), baculovirus
Assay: PRMT5 Biochemical Assay (PRMT5/MEP50 enzyme assay on histone H4 peptide substrate, 3H-SAM Flashplate)
Excerpt: S-adenosylmethionine (SAM), S-adenosylhomocysteine (SAH), bicine, KCl, Tween20, dimethylsulfoxide (DMSO), bovine skin gelatin (BSG), and Tris(2-carboxyethyl)phosphine hydrochloride solution (TCEP) were purchased from Sigma-Aldrich at the highest level of purity possible. ^3H-SAM was purchase from American Radiolabeled Chemicals with a specific activity of 80 Ci/mmol. 384-well streptavidin Flashplates were purchased from PerkinElmer.
Peptide representative of human histone H4 residues 1-15 was synthesized with a C-terminal linker-affinity tag motif and a C-terminal amide cap by 21st Century Biochemicals.
The amplified genes were sublconed into pENTR/D/TEV (Life Technologies) and subsequently transferred by Gateway™ attL×attR recombination to pDEST8 baculvirus expression vector (Life Technologies).
Protein over-expression was accomplished by infecting exponentially growing Spodoptera frugiperda (SF9) cell culture at 1.2×10^6 cell/ml with a 5000 fold dilution of BIIC stock. Infections were carried out at 27° C. for 72 hours, harvested by centrifugation, and stored at −80° C. for purification.
Flag-PRMT5/6His-MeP50 was eluted with 300 mM Imidazole in the same buffer.
General Procedure for PRMT5/MEP50 Enzyme Assays on Peptide Substrates.
The assays were all performed in a buffer consisting of 20 mM Bicine (pH=7.6), 1 mM TCEP, 0.005% BSG, and 0.002% Tween20, prepared on the day of use. […] DMSO (1 ul) was added to Columns 11, 12, 23, 24, rows A-H for the maximum signal control and 1 ul of SAH, a known product and inhibitor of PRMT5/MEP50, was added to columns 11, 12, 23, 24, rows I-P for the minimum signal control. A cocktail (40 ul) containing the PRMT5/MEP50 enzyme and the peptide was added by Multidrop Combi (Thermo-Fisher). The compounds were allowed to incubate with PRMT5/MEP50 for 30 min at 25 degrees Celsius, then a cocktail (10 ul) containing ^3H-SAM was added to initiate the reaction (final volume=51 ul). […] The assays were stopped by the addition of non-radioactive SAM (10 ul) to a final concentration of 600 uM, which dilutes the ^3H-SAM to a level where its incorporation into the peptide substrate is no longer detectable. 50 ul of the reaction in the 384-well polypropylene plate was then transferred to a 384-well Flashplate and the biotinylated peptides were allowed to bind to the streptavidin surface for at least 1 hour before being washed three times with 0.1% Tween20 in a Biotek ELx405 plate washer. The plates were then read in a PerkinElmer TopCount plate reader to measure the quantity of ^3H-labeled peptide bound to the Flashplate surface, measured as disintegrations per minute (dpm) or alternatively, referred to as counts per minute (cpm).
Where dpm=disintegrations per minute, cmpd=signal in assay well, and min and max are the respective minimum and maximum signal controls.
Where top and bottom are the normally allowed to float, but may be fixed at 100 or 0 respectively in a 3-parameter fit. The Hill Coefficient normally allowed to float but may also be fixed at 1 in a 3-parameter fit. Y is the % inhibition and X is the compound concentration.

[1] = PRMT5 biochemical assay, read-out: Biochemical IC50

T1 sequence (O14744 with tags, fused parts or gaps): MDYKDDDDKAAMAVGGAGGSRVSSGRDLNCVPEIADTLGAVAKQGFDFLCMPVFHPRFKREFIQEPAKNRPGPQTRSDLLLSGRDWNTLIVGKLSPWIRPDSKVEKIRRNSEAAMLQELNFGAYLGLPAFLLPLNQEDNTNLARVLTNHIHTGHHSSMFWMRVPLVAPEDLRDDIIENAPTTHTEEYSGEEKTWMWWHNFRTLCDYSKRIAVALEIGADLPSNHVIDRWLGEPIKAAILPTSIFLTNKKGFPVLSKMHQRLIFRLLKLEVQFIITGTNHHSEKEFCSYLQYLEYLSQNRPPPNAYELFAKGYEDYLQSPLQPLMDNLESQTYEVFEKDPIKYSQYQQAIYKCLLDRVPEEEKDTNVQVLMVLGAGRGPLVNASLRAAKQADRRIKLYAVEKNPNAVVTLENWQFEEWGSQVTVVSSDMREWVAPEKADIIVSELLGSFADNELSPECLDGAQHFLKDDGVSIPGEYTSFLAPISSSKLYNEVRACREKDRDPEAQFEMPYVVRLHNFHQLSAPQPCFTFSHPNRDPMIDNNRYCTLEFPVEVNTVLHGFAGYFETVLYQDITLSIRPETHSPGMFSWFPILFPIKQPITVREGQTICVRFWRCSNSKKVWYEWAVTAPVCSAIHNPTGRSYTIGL
T1 sequence (Q9BQA1 with tags, fused parts or gaps partner limits assumed): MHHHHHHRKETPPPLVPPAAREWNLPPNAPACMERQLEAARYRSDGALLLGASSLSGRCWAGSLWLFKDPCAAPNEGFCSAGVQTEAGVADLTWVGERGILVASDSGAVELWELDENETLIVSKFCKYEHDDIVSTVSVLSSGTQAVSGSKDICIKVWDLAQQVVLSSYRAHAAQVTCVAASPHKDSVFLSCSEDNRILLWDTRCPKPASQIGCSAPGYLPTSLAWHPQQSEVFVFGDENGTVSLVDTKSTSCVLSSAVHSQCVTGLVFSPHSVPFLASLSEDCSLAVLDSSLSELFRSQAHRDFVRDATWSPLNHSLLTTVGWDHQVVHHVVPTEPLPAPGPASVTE

SMILES | pIC50 [1] | pIC50
CN(CCNCCc1ccc(Cl)cc1)C[C@H]1O[C@@H](n2cnc3c(N)ncnc32)[C@H](O)[C@@H]1O [Compound 61-1] | > 7.00 | –
COc1cccc(NC(=O)CC2NC(N3CCN(c4ccccc4)CC3)=NC2=O)c1 (stereo not shown) [Compound 61-14] | 4.30 to 5.00 | –
CCC(COC)NCCN(C)C[C@H]1O[C@@H](n2cnc3c(N)ncnc32)[C@H](O)[C@@H]1O (stereo partly shown) [Compound 62-1] | 6.00 to 7.00 | –
COc1ccc(NC(=O)CC2NC(N3CCN(c4ccccc4)CC3)=NC2=O)cc1 (stereo not shown) [Compound 62-14] | 5.00 to 6.00 | –
CN(CCNCCOc1ccccc1)C[C@H]1O[C@@H](n2cnc3c(N)ncnc32)[C@H](O)[C@@H]1O [Compound 63-1] | > 7.00 | –
COc1cc(Cl)ccc1NC(=O)CC1NC(N2CCN(c3ccccc3)CC2)=NC1=O (stereo not shown) [Compound 63-14] | 6.00 to 7.00 | –
CNCCNC[C@H]1O[C@@H](n2cnc3c(N)ncnc32)[C@H](O)[C@@H]1O [Compound 64-1] | 6.00 to 7.00 | –
COc1cc(NC(=O)CC2NC(N3CCN(c4ccccc4)CC3)=NC2=O)ccc1Cl (stereo not shown) [Compound 64-14] | 5.00 to 6.00 | –
CN(CCNC1CCCC1)C[C@H]1O[C@@H](n2cnc3c(N)ncnc32)[C@H](O)[C@@H]1O [Compound 65-1] | 6.00 to 7.00 | –
O=C(CC1NC(N2CCN(c3ccccc3)CC2)=NC1=O)Nc1ccc2c(c1)OCO2 (stereo not shown) [Compound 65-14] | 4.30 to 5.00 | –
CC1CCCCN1CCCNCCN(C)C[C@H]1O[C@@H](n2cnc3c(N)ncnc32)[C@H](O)[C@@H]1O (stereo partly shown) [Compound 66-1] | 6.00 to 7.00 | –
Cc1cc(Cl)ccc1NC(=O)CC1NC(N2CCN(c3ccccc3)CC2)=NC1=O (stereo not shown) [Compound 66-14] | 5.00 to 6.00 | –
COCC(C)NCCN(C)C[C@H]1O[C@@H](n2cnc3c(N)ncnc32)[C@H](O)[C@@H]1O (stereo partly shown) [Compound 67-1] | 6.00 to 7.00 | –
Cc1ccc(NC(=O)CC2NC(N3CCN(c4ccccc4)CC3)=NC2=O)cc1 (stereo not shown) [Compound 67-14] | 5.00 to 6.00 | –
CCCCNCCN(C)C[C@H]1O[C@@H](n2cnc3c(N)ncnc32)[C@H](O)[C@@H]1O [Compound 68-1] | > 7.00 | –
O=C(CC1NC(N2CCN(c3ccccc3)CC2)=NC1=O)Nc1ccccc1Br (stereo not shown) [Compound 68-14] | 4.30 to 5.00 | –
Cc1ccccc1C(=O)CC1NC(N2CCN(c3ccccc3)CC2)=NC1=O (stereo not shown) [Compound 69-14] | 6.00 to 7.00 | –
CN(CCNCCc1ccc(O)cc1)C[C@H]1O[C@@H](n2cnc3c(N)ncnc32)[C@H](O)[C@@H]1O [Compound 70-1] | > 7.00 | –
O=C(CC1NC(N2CCN(c3ccccc3)CC2)=NC1=O)NCC1CCOCC1 (stereo not shown) [Compound 70-14] | 4.30 to 5.00 | –
CN(CCNC1CCC(C(C)(C)C)CC1)C[C@H]1O[C@@H](n2cnc3c(N)ncnc32)[C@H](O)[C@@H]1O (stereo partly shown) [Compound 71-1] | 6.00 to 7.00 | –
COc1ccccc1C(=O)CC1NC(N2Cc3ccccc3C2)=NC1=O (stereo not shown) [Compound 71-14] | 5.00 to 6.00 | –
CN(CCNCCc1c(Cl)cccc1Cl)C[C@H]1O[C@@H](n2cnc3c(N)ncnc32)[C@H](O)[C@@H]1O [Compound 72-1] | > 7.00 | –
O=C(CC1NC(N2CC=C(c3ccccc3)CC2)=NC1=O)Nc1ccc(Cl)cc1 (stereo not shown) [Compound 72-14] | 6.00 to 7.00 | –
CN(CCNCCOc1cccc(F)c1)C[C@H]1O[C@@H](n2cnc3c(N)ncnc32)[C@H](O)[C@@H]1O [Compound 73-1] | 6.00 to 7.00 | –
O=C(CC1NC(N2CCC(O)(c3ccccc3)CC2)=NC1=O)Nc1ccc(Cl)cc1 (stereo not shown) [Compound 73-14] | 6.00 to 7.00 | –

SMILES | pIC50 [1] | pIC50
Nc1ncnc2c1ncn2[C@@H]1O[C@H](CNCCNCCc2ccc(Cl)cc2)[C@@H](O)[C@H]1O [Compound 74-1] | > 7.00 | –
Cc1cc(NC(=O)CC2NC(N3CCN(c4ccccc4)CC3)=NC2=O)ccc1Cl (stereo not shown) [Compound 74-14] | 5.00 to 6.00 | –
CCCCOC(=O)c1ccc(NC(=O)NCCNC[C@H]2O[C@@H](n3cnc4c(N)ncnc43)[C@H](O)[C@@H]2O)cc1 [Compound 75-1] | > 7.00 | –
O=C(CC1NC(N2CCN(c3ccccc3)CC2)=NC1=O)c1ccccc1Br (stereo not shown) [Compound 75-14] | 6.00 to 7.00 | –
CC(=O)N(CCNCCc1ccc(Cl)cc1)C[C@H]1O[C@@H](n2cnc3c(N)ncnc32)[C@H](O)[C@@H]1O [Compound 76-1] | 6.00 to 7.00 | –
CC(C)N(CCNCCc1ccc(Cl)cc1)C[C@H]1O[C@@H](n2cnc3c(N)ncnc32)[C@H](O)[C@@H]1O [Compound 77-1] | 6.00 to 7.00 | –
Nc1ncnc2c1ncn2[C@@H]1O[C@H](CN(CCCC(=O)OCc2ccccc2)CCNCCc2ccc(Cl)cc2)[C@@H](O)[C@H]1O [Compound 78-1] | > 7.00 | –
CN(CCNCCc1ccccc1)C[C@H]1O[C@@H](n2cnc3c(N)ncnc32)[C@H](O)[C@@H]1O [Compound 79-1] | 6.00 to 7.00 | –
Nc1ncnc2c1ncn2[C@@H]1O[C@H](CN(CCCC(=O)O)CCNCCc2ccc(Cl)cc2)[C@@H](O)[C@H]1O [Compound 80-1] | > 7.00 | –
Nc1ncnc2c1ncn2[C@@H]1O[C@H](CN(CCNCCc2ccc(Cl)cc2)Cc2ccccc2)[C@@H](O)[C@H]1O [Compound 81-1] | > 7.00 | –
CCN(CCNCCc1ccc(Cl)cc1)C[C@H]1O[C@@H](n2cnc3c(N)ncnc32)[C@H](O)[C@@H]1O [Compound 82-1] | 6.00 to 7.00 | –
N=C(NC[C@H]1O[C@@H](n2cnc3c(N)ncnc32)[C@H](O)[C@@H]1O)c1ccccc1 [Compound 83-1] | 6.00 to 7.00 | –
Nc1ncnc2c1ncn2[C@@H]1O[C@H](CN2CCCN(c3ccccn3)CC2)[C@@H](O)[C@H]1O [Compound 84-1] | 6.00 to 7.00 | –
CN1CCC(N(C)C[C@H]2O[C@@H](n3cnc4c(N)ncnc43)[C@H](O)[C@@H]2O)C1 (stereo partly shown) [Compound 85-1] | 6.00 to 7.00 | –
CN1CC[C@@H](N(C)C[C@H]2O[C@@H](n3cnc4c(N)ncnc43)[C@H](O)[C@@H]2O)C1 [Compound 86-1] | 6.00 to 7.00 | –
Nc1ncnc2c1ncn2[C@@H]1O[C@H](CSC[C@H](N)C(=O)O)[C@@H](O)[C@H]1O [Compound 88-1] | 6.00 to 7.00 | –
NCCCSC[C@H]1O[C@@H](n2cnc3c(N)ncnc32)[C@H](O)[C@@H]1O [Compound 89-1] | – | > 7.00
Nc1ncnc2c1ncn2[C@@H]1O[C@H](CSCCC(N)CO)[C@@H](O)[C@H]1O (stereo partly shown) [Compound 90-1] | > 7.00 | –
Nc1ncnc2c1ncn2[C@@H]1O[C@H](CSCC[C@H](N)CO)[C@@H](O)[C@H]1O [Compound 91-1, (2S, 3S, 4R, 5R)-2-((((S)-3-amino-4-hydroxybutyl)thio)methyl)-5-(6-amino-9H-purin-9-yl)tetrahydrofuran-3,4-diol] | > 7.00 | –
O=C1c2ccccc2C(=O)N1CCCSC[C@H]1C[C@@H](n2ccc3cncnc32)[C@H](O)[C@@H]1O [Compound 93-1] | 6.00 to 7.00 | –
CCSC[C@H]1O[C@@H](n2cnc3c(N)ncnc32)[C@H](O)[C@@H]1O [Compound 94-1] | 6.00 to 7.00 | –
Nc1ncnc2c1ncn2[C@@H]1O[C@H](CSCCCC(=O)O)[C@@H](O)[C@H]1O [Compound 95-1] | 6.00 to 7.00 | –
CSC[C@H]1O[C@@H](n2cnc3c(N)ncnc32)[C@H](O)[C@@H]1O [Compound 96-1] | 6.00 to 7.00 | –
CN(CCCN)C[C@H]1O[C@@H](n2cnc3c(N)ncnc32)[C@H](O)[C@@H]1O [Compound 97-1] | > 7.00 | –

From patent publication US20170198006A1, “PRMT5 INHIBITORS AND USES THEREOF” (Epizyme, Inc., priority 2014, published 2017)
